Test results reported in patent publication US11702399B2, “Quinazolinone derivative, preparation method therefor, pharmaceutical composition, and applications” (KANGPU BIOPHARMACEUTICALS, LTD., priority 2016, dated 2023).
Like-named read-outs stand apart in the source and are kept apart here.

Columns and labels:
Assay type in all cases: cell-based
TNF-α = TNF-α activity inhibition assay (LPS-stimulated hPBMC, TNF-α ELISA); settings: Homo sapiens, 18 h
Description: Efficacy Example 1: TNF-α Activity Inhibition Assay
Heat Inactivated FBS: Invitrogen, Cat #10100147
DMSO: Dimethyl sulphoxide, Sigma, Cat #D8418
CTL-Anti-Aggregate Wash 20×: CTL, Cat #CTL-AA-005
Human TNF ELISA Set: BD, Cat #555212
PBMC Recovery and Cell Plating Steps
1) Agitation was performed continuously in a 37° C. water bath to rapidly thaw cells.
2) The cells were gently added to a 15 ml centrifuge tube, to which was then added 10 ml of fresh, prewarmed recovery medium gently and then centrifugation was performed at 1000 rpm for 10 min.
3) The supernatant medium was discarded and resuspension was performed with 10 ml of fresh, prewarmed RPMI 1640 complete medium.
1) The total number of cells needed for the experiment was calculated and adjusted to the appropriate cell concentration per ml. 100 ul and 10^5 cells per well.
2) The cell suspension was diluted with appropriate volume of cell culture medium.
3) The cell suspension was added to a disposable sterile sample well.
4) 100 ul of cell suspension was added to each well of a 96-well plate.
5) The plate was incubated in a 37° C., 5% CO2 incubator for 2 hours.
Compound Preparation Step
1. LPS: The 1 mg/mL stock solution was diluted with water, aliquoted, and stored at −80° C. Prior to each test, the working solution of LPS was diluted from the stock solution with serum-free RPMI 1640 medium.
20 mM stock solution was dissolved in DMSO and the compound was checked for solubility, aliquoted, and stored at −80° C.
8× compound gradient preparation: […]
A series of compound concentration gradient was diluted with DMSO: 10 mM, 2 mM, 0.4 mM, 80 uM, 16 uM, 3.2 uM, 0.64 uM, 0.128 uM were obtained and then the compounds were diluted 125-fold with serum-free RPMI 1640 medium to the final 8×. The final concentration of DMSO in cell culture was 0.1%.
Compound Processing Experimental Procedures and Collection of Supernatants
1. Cell Plating: Fresh cells were plated in 96-well cell culture plates according to the procedure above, 100 ul and 10^5 cells per well, and then incubated in a 37° C., 5% CO2 incubator for 2 hours.
2. Compound Preparation: Before test, compounds were added to the plates according to the above description. A dose of compound in 8× concentration was prepared with serum-free RPMI 1640 medium and all gradients of solution were added to the compound plate.
3. Compound addition: 16.7 ul of compound solution in working concentration was added to each well of the cell culture plate. The plate was incubated in a 37° C., 5% CO2 incubator for 1 hour.
4. 16.7 ul of 8×LPS per well (final concentration of LPS is EC80, the amount of each PBMC needed to be determined) was added. The plate was incubated for 18 hours in 37° C., 5% CO2 incubator.
5. 80 ul of supernatant per well was collected and then subjected to TNF-α ELISA assay. The collected supernatant can be stored at −80° C. The supernatant needed to be diluted in various ratios to ensure that the experimental dose would not exceed the linear range of the TNF-α standard curve, depending on the amount of TNF-α released in different donors. Typically, 20-100 ul of supernatant was diluted to 200 ul and then used for ELISA experiments.
The TNF-α ELISA test procedure were referred to the BD human TNF-α ELISA kit experimental procedure.
Four compounds per plate. 5-fold dilution was performed, starting from 10 uM, by 8 gradients, and parallel wells were made. A total of 16 compounds were tested.
The TNF-α standard was added to each plate. (1st well, starting from 500 pg/ml, 2-fold dilution, 7 gradients)
ZPE (0% inhibition) used 15 pg/ml LPS+0.1% DMSO, while HPE (100% inhibition) used only 0.1% DMSO.
The inhibition rate statistics were calculated. The inhibition rate (%)=[1−[…]]*100%. IC50 was used to evaluate the concentration of the test compound (nM) at 50% inhibition.

[1] = tested on: MM.1S cells (myeloma cells); experiment: CTG cell proliferation, MM.1S; settings: Homo sapiens, MM1.S, CellTiter-Glo, 72-120 hours, read-out: IC50 value for MM.1S Inhibition
Excerpt: (§1) Efficacy Example 2: CTG Cell Proliferation Experimental Method
(§2) MM.1S cells (myeloma cells) (ATCC, catalog number CRL-2974), DOHH2 cells (mantle cell lymphoma cells) (DSMZ, catalog number ACC-47), NCI-H929 cells (myeloma cells) (ATCC, catalog number CRL-9068), or WSU-DLCL-2 cells (diffuse large B cell lymphoma cells) (DSMZ, catalog number ACC-575), Namalwa.CSN/70 cells (non-Hodgkin's lymphoma cells (DSMZ, catalog number ACC-70) was inoculated as (1.8-15)×10^3 per well in white wall, transparent bottom 96-well plate containing specific media (Corning, catalog number CLS3903), which was cultured in 37° C., 5% CO2 incubator for 24 hours. Compounds were formulated in DMSO (Sigma, Cat. No. 276855) as 150 mM stock, which was diluted to the required concentration (DMSO final concentration is 0.2%) in culture medium and added to each well, 2 wells/concentration. The plate was incubated in 37° C., 5% CO2 incubator for 72-120 hours. Afterwards, 100 μl of CellTiter-Glo® cell activity assay reagent (Promega, Cat. No. G7570) was added to each well, which was mixed on a plate shaker for 10 minutes to induce cell lysis. The 96-well plate was allowed to stand at room temperature for 10 minutes to stabilize the luminescence signal. A white base film was pasted on the bottom of the plate and the EnSpire was used to read the plate. Data processing was performed with XLfit software to obtain IC50 values.

[2] = tested on: WSU-DLCL-2 cells (diffuse large B cell lymphoma cells); experiment: CTG cell proliferation, WSU-DLCL-2; settings: Homo sapiens, WSUDLCL2; Table 2 batch; CellTiter-Glo, 72-120 hours; read-out: IC50 value for WSU-DLCL2 Inhibition
Excerpt: as §1, §2

[3] = tested on: DOHH2 cells (mantle cell lymphoma cells); experiment: CTG cell proliferation, DOHH2; settings: Homo sapiens, DOHH-2; Table 2 batch; CellTiter-Glo, 72-120 hours; read-out: IC50 value for DOHH2 Inhibition
Excerpt: as §1, §2

[4] = tested on: NCI-H929 cells (myeloma cells); experiment: CTG cell proliferation, NCI-H929; settings: Homo sapiens, Table 2 batch, CellTiter-Glo, 72-120 hours, read-out: IC50 value for NCI-H929 Inhibition
Excerpt: as §1, §2

[5] = tested on: Namalwa.CSN/70 cells (non-Hodgkin's lymphoma cells); experiment: CTG cell proliferation, Namalwa.CSN/70; settings: Table 2 batch; CellTiter-Glo, 72-120 hours; read-out: IC50 value for Namalwa. CSN/70 Inhibition
Excerpt: as §1, §2

Row | IC50 (TNF-α; Table 1-1 experiment) | IC50 ([1]; Table 3 batch) | Compound | further results
1 | 99.1 nM |  | Nc1cccc2c1CN(C1CCC(=O)NC1=O)C2=O (stereo not shown) [Compound B001] | IC50 (TNF-α; Table 1 experiment): 192 nM; IC50 ([1]; Table 2 batch): 362 nM; IC50 [2]: > 300000 nM; IC50 [3]: > 300000 nM; IC50 [4]: 1000 nM; IC50 [5]: > 300000 nM
2 | 32.8 nM | 37.5 nM | Cc1nc2cccc(N)c2c(=O)n1C1CCC(=O)NC1=O (stereo not shown) [Compound K001, reference compound] | IC50 (TNF-α; Table 1 experiment): 32.5 nM; IC50 ([1]; Table 2 batch): 49.8 nM; IC50 ([1]; Table 4 batch): 275 nM; IC50 [2]: 469 nM; IC50 [3]: 459 nM; IC50 [4]: 86.1 nM; IC50 [5]: 65.8 nM
3 | 10.2 nM |  | Cc1nc2cc(F)cc(N)c2c(=O)n1C1CCC(=O)NC1=O (stereo not shown) [Compound K101] | IC50 (TNF-α; Table 1 experiment): 27.8 nM; IC50 ([1]; Table 2 batch): 13.3 nM; IC50 [2]: 179 nM; IC50 [3]: 125 nM; IC50 [4]: 30.4 nM; IC50 [5]: 6.8 nM
4 | 7.3 nM |  | Cc1nc2cc(F)cc(N)c2c(=O)n1[C@H]1CCC(=O)NC1=O [Compound K102] | IC50 ([1]; Table 4 batch): 104 nM
5 | 283 nM |  | Cc1nc2cc(F)cc(N)c2c(=O)n1[C@@H]1CCC(=O)NC1=O [Compound K103] | IC50 ([1]; Table 4 batch): 465 nM
6 |  |  | [2H]C1(n2c(C)nc3cc(F)cc(N)c3c2=O)CCC(=O)NC1=O (stereo not shown) [Compound K104] | IC50 ([1]; Table 4 batch): 192 nM
7 | 6.4 nM |  | [2H][C@]1(n2c(C)nc3cc(F)cc(N)c3c2=O)CCC(=O)NC1=O [Compound K105] | IC50 ([1]; Table 4 batch): 33 nM
8 | 781 nM |  | [2H][C@@]1(n2c(C)nc3cc(F)cc(N)c3c2=O)CCC(=O)NC1=O [Compound K106] | IC50 ([1]; Table 4 batch): 504 nM
9 | 10.2 nM | 22 nM | Cc1nc2cc(Cl)cc(N)c2c(=O)n1C1CCC(=O)NC1=O (stereo not shown) [Compound K401] | 
10 | 9.6 nM | 26.7 nM | Cc1nc2cc(Br)cc(N)c2c(=O)n1C1CCC(=O)NC1=O (stereo not shown) [Compound K501] | 
11 | 9.4 nM |  | CNc1cc(F)cc2nc(C)n(C3CCC(=O)NC3=O)c(=O)c12 (stereo not shown) [Compound K613] | 
12 | 153 nM |  | Cc1nc2cc(F)cc(NC(C)C)c2c(=O)n1C1CCC(=O)NC1=O (stereo not shown) [Compound K617] | 
13 |  | 5930 nM | COc1cc(F)cc2nc(C)n(C3CCC(=O)NC3=O)c(=O)c12 (stereo not shown) [Compound K627] | 
14 |  | 956 nM | Cc1nc2cc(F)cc(O)c2c(=O)n1C1CCC(=O)NC1=O (stereo not shown) [Compound K631] | 
15 | 392 nM | 314 nM | CC(=O)Nc1cc(F)cc2nc(C)n(C3CCC(=O)NC3=O)c(=O)c12 (stereo not shown) [Compound K633] | 
16 |  | 2810 nM | Cc1nc2cc(F)cc(NC(=O)C(C)C)c2c(=O)n1C1CCC(=O)NC1=O (stereo not shown) [Compound K635] | 
17 |  | 507 nM | Cc1nc2cc(O)cc(N)c2c(=O)n1C1CCC(=O)NC1=O (stereo not shown) [Compound K700] | 
18 | 466 nM |  | Cc1nc2cc(OCc3ccccc3)cc(N)c2c(=O)n1C1CCC(=O)NC1=O (stereo not shown) [Compound K704] | 
19 | 319 nM |  | Cc1nc2cc(OCc3ccc(CN4CCOCC4)cc3F)cc(N)c2c(=O)n1C1CCC(=O)NC1=O (stereo not shown) [Compound K706] | 
20 | 138 nM |  | Cc1cc(N)c2c(=O)n(C3CCC(=O)NC3=O)c(C)nc2c1 (stereo not shown) [Compound K720] | 
21 | 5.9 nM |  | Cc1nc2cc(C#N)cc(N)c2c(=O)n1C1CCC(=O)NC1=O (stereo not shown) [Compound K724] | 
22 | 2800 nM | 2400 nM | Cc1nc2cc(F)ccc2c(=O)n1C1CCC(=O)NC1=O (stereo not shown) [Reference 1, reference compound] | 
23 |  | > 300000 nM | Cc1nc2c(F)ccc(N)c2c(=O)n1C1CCC(=O)NC1=O (stereo not shown) [Reference 2, reference compound] | 
24 |  | 1170 nM | Cc1nc2ccc(F)c(N)c2c(=O)n1C1CCC(=O)NC1=O (stereo not shown) [Reference 3, reference compound] | 
